According to patent US20080058330A1, “Compounds and Combinations Thereof for Inhibiting Beta-Amyloid Production and Methods of Use Thereof” (Roskamp Research LLC, priority 2006, published 2008):

Key:
7W WT APP751 CHO cells [1] = assay: Screening of dihydropyridine compounds (Maybridge), Aβ1-40 and Aβ1-42 ELISA (Example 2); format: cell-based, Chinese hamster; details: 30 μM, 24 hours (FIG. 5A, 5B)
Method: (§1) Dihydropyridine compounds were obtained from Maybridge (England). Each compound was dissolved in DMSO. 7W WT APP751 CHO cells overexpressing APP751 were plated into 96-well culture plates in 200 μL of culture medium. Each compound from the library was added to confluent cells to a final concentration of 30 μM. After 24 hours of treatment, culture medium was collected and dissolved 10-fold and 2-fold for measuring the level of Aβ1-40 and Aβ1-42, respectively. Aβ1-40 and Aβ1-42 were determined using commercially available ELISAs (Biosource, CA), following the recommendations of the manufacturer.

7W WT APP751 CHO cells [2] = assay: Screening of NF-kB activation inhibitors, Aβ1-40 and Aβ1-42 ELISA (Example 3); format: cell-based, Chinese hamster; details: 24 hours (FIG. 6)
Method: as §1, with “Each compound” for “Dihydropyridine compounds were obtained from Maybridge (England). Each compound”, “concentration of 500 nM, 1 μM, 5 μM, 10 μM and/or 30 μM.” for “concentration of 30 μM.”

CCOC(=O)C1=C(C)NC(C)=C(C(=O)OCC)C1c1ccc(-c2cc(C(F)(F)F)cc(C(F)(F)F)c2)o1 [CD 04170, diethyl 4-{5-[3,5-di(trifluoromethyl)phenyl]-2-furyl}-2,6-dimethyl-1,4-dihydro-pyridine-3,5-dicarboxylate]
significantly decreased: concentration of Aβ1-40 compared to controls (7W WT APP751 CHO cells [1]) | concentration of Aβ1-42 compared to controls (7W WT APP751 CHO cells [1]) | concentration of total β-amyloid (Aβ1-40+Aβ1-42) compared to controls (7W WT APP751 CHO cells [1])

CCOC(=O)C1=C(C)NC(C)=C(C(=O)OCC)C1c1ccc(Cl)c(Cl)c1 [JFD 03294, diethyl 4-(3,4-dichlorophenyl)-2,6-dimethyl-1,4-dihydropyridine-3,5-dicarboxylate]
significantly decreased: concentration of Aβ1-40 compared to controls (7W WT APP751 CHO cells [1]) | concentration of Aβ1-42 compared to controls (7W WT APP751 CHO cells [1]) | concentration of total β-amyloid (Aβ1-40+Aβ1-42) compared to controls (7W WT APP751 CHO cells [1])

COC(=O)C1=C(C)NC(C)=C(C(=O)OCCCN2CCC(c3ccccc3)(c3ccccc3)CC2)[C@H]1c1cccc([N+](=O)[O-])c1.Cl [(S)-(+)-niguldipine]
significantly decreased: concentration of Aβ1-40 compared to controls (7W WT APP751 CHO cells [2]; 1 μM) | concentration of Aβ1-42 compared to controls (7W WT APP751 CHO cells [2]; 1 μM) | concentration of total β-amyloid compared to controls (7W WT APP751 CHO cells [2]; 1 μM) | concentration of Aβ1-40 compared to controls (7W WT APP751 CHO cells [2]; 5 μM) | concentration of Aβ1-42 compared to controls (7W WT APP751 CHO cells [2]; 5 μM) | concentration of total β-amyloid compared to controls (7W WT APP751 CHO cells [2]; 5 μM) | concentration of Aβ1-40 compared to controls (7W WT APP751 CHO cells [2]; 30 μM) | concentration of Aβ1-42 compared to controls (7W WT APP751 CHO cells [2]; 30 μM) | concentration of total β-amyloid compared to controls (7W WT APP751 CHO cells [2]; 30 μM)

NC(=O)Nc1sc(-c2ccc(F)cc2)cc1C(N)=O [IKK-2 Inhibitor IV]
significantly decreased: concentration of Aβ1-40 compared to controls (7W WT APP751 CHO cells [2]; 500 nM) | concentration of Aβ1-42 compared to controls (7W WT APP751 CHO cells [2]; 500 nM) | concentration of total β-amyloid compared to controls (7W WT APP751 CHO cells [2]; 500 nM) | concentration of Aβ1-40 compared to controls (7W WT APP751 CHO cells [2]; 5 μM) | concentration of Aβ1-42 compared to controls (7W WT APP751 CHO cells [2]; 5 μM) | concentration of total β-amyloid compared to controls (7W WT APP751 CHO cells [2]; 5 μM)

C[C@@H]1CC[C@H]2[C@@H](C)C(=O)O[C@@H]3O[C@@]4(C)CC[C@@H]1[C@]32OO4 [artemisinin]
significantly decreased: concentration of Aβ1-40 compared to controls (7W WT APP751 CHO cells [2]; 1 μM) | concentration of Aβ1-42 compared to controls (7W WT APP751 CHO cells [2]; 1 μM) | concentration of total β-amyloid compared to controls (7W WT APP751 CHO cells [2]; 1 μM) | concentration of Aβ1-40 compared to controls (7W WT APP751 CHO cells [2]; 30 μM) | concentration of Aβ1-42 compared to controls (7W WT APP751 CHO cells [2]; 30 μM) | concentration of total β-amyloid compared to controls (7W WT APP751 CHO cells [2]; 30 μM)

CCOC(=O)C1=C(C)NC(C)=C(C(=O)OCC)C1c1ccc([N+](=O)[O-])cc1 [JFD 03266, diethyl 2,6-dimethyl-4-(4-nitrophenyl)-1,4-dihydropyridine-3,5-dicarboxylate]
significantly decreased: concentration of Aβ1-40 compared to controls (7W WT APP751 CHO cells [1]) | concentration of total β-amyloid (Aβ1-40+Aβ1-42) compared to controls (7W WT APP751 CHO cells [1])

N#Cc1c(-c2cn(-c3ccccc3)nc2-c2ccccc2)cc(-c2ccccc2)[nH]c1=O [HTS 07578, 4-(1,3-diphenyl-1H-pyrazol-4-yl)-2-oxo-6-phenyl-1,2-dihydro-3-pyridinecarbonitrile]
significantly decreased: concentration of Aβ1-40 compared to controls (7W WT APP751 CHO cells [1]) | concentration of Aβ1-42 compared to controls (7W WT APP751 CHO cells [1]) | concentration of total β-amyloid (Aβ1-40+Aβ1-42) compared to controls (7W WT APP751 CHO cells [1])

CCOC(=O)C1=C(C)NC(C)=C(C(=O)OCC)C1c1ccc(Cl)cc1 [BTB 14328, diethyl 4-(4-chlorophenyl)-2,6-dimethyl-1,4-dihydropyridine-3,5-dicarboxylate]
significantly decreased: concentration of Aβ1-40 compared to controls (7W WT APP751 CHO cells [1]) | concentration of Aβ1-42 compared to controls (7W WT APP751 CHO cells [1]) | concentration of total β-amyloid (Aβ1-40+Aβ1-42) compared to controls (7W WT APP751 CHO cells [1])

N#Cc1c(-c2cccs2)cc(-c2ccccc2)[nH]c1=O [HTS 10306, 2-oxo-6-phenyl-4-(2-thienyl)-1,2-dihydro-3-pyridinecarbonitrile]
significantly decreased: concentration of Aβ1-40 compared to controls (7W WT APP751 CHO cells [1]) | concentration of Aβ1-42 compared to controls (7W WT APP751 CHO cells [1]) | concentration of total β-amyloid (Aβ1-40+Aβ1-42) compared to controls (7W WT APP751 CHO cells [1])

CCOC(=O)C1=C(C)NC(C)=C(C(=O)OCC)C1c1cccc([N+](=O)[O-])c1 [XBX 00343, diethyl 2,6-dimethyl-4-(3-nitrophenyl)-1,4-dihydropyridine-3,5-dicarboxylate]
significantly decreased: concentration of Aβ1-40 compared to controls (7W WT APP751 CHO cells [1]) | concentration of total β-amyloid (Aβ1-40+Aβ1-42) compared to controls (7W WT APP751 CHO cells [1])

CCOC(=O)C1=C(C)NC(C)=C(C(=O)OCC)C1c1ccc(C)cc1 [JFD 03282, diethyl 2,6-dimethyl-4-(4-methylphenyl)-1,4-dihydropyridine-3,5-dicarboxylate]
significantly decreased: concentration of Aβ1-40 compared to controls (7W WT APP751 CHO cells [1]) | concentration of Aβ1-42 compared to controls (7W WT APP751 CHO cells [1]) | concentration of total β-amyloid (Aβ1-40+Aβ1-42) compared to controls (7W WT APP751 CHO cells [1])

CCOC(=O)C1=C(C)NC(C)=C(C(=O)OCC)C1c1ccc(-c2ccccc2C(F)(F)F)o1 [RJC 03405, diethyl 2,6-dimethyl-4-{5-[2-(trifluoromethyl)phenyl]-2-furyl}-1,4-dihydro-3,5-pyridinedicarboxylate]
significantly decreased: concentration of Aβ1-40 compared to controls (7W WT APP751 CHO cells [1]) | concentration of total β-amyloid (Aβ1-40+Aβ1-42) compared to controls (7W WT APP751 CHO cells [1])

CCOC(=O)C1=C(C)NC(C)=C(C(=O)OCC)C1c1ccc(F)cc1 [JFD 03318, diethyl 4-(4-fluorophenyl)-2,6-dimethyl-1,4-dihydropyridine-3,5-dicarboxylate]
significantly decreased: concentration of Aβ1-40 compared to controls (7W WT APP751 CHO cells [1]) | concentration of Aβ1-42 compared to controls (7W WT APP751 CHO cells [1]) | concentration of total β-amyloid (Aβ1-40+Aβ1-42) compared to controls (7W WT APP751 CHO cells [1])

COC(=O)C1=C(C)NC(C)=C(C(=O)OCCCN2CCC(c3ccccc3)(c3ccccc3)CC2)[C@@H]1c1cccc([N+](=O)[O-])c1.Cl [R-niguldipine]
significantly decreased: concentration of Aβ1-40 compared to controls (7W WT APP751 CHO cells [2]; 1 μM) | concentration of Aβ1-42 compared to controls (7W WT APP751 CHO cells [2]; 1 μM) | concentration of total β-amyloid compared to controls (7W WT APP751 CHO cells [2]; 1 μM) | concentration of Aβ1-40 compared to controls (7W WT APP751 CHO cells [2]; 5 μM) | concentration of Aβ1-42 compared to controls (7W WT APP751 CHO cells [2]; 5 μM) | concentration of total β-amyloid compared to controls (7W WT APP751 CHO cells [2]; 5 μM) | concentration of Aβ1-40 compared to controls (7W WT APP751 CHO cells [2]; 30 μM) | concentration of Aβ1-42 compared to controls (7W WT APP751 CHO cells [2]; 30 μM) | concentration of total β-amyloid compared to controls (7W WT APP751 CHO cells [2]; 30 μM)

CCOC(=O)C1=C(C)NC(C)=C(C(=O)OCC)C1c1ccc(Cl)cc1Cl [RJC 03403, diethyl 4-(2,4-dichlorophenyl)-2,6-dimethyl-1,4-dihydro-3,5-pyridinedicarboxylate]
significantly decreased: concentration of Aβ1-40 compared to controls (7W WT APP751 CHO cells [1]) | concentration of Aβ1-42 compared to controls (7W WT APP751 CHO cells [1]) | concentration of total β-amyloid (Aβ1-40+Aβ1-42) compared to controls (7W WT APP751 CHO cells [1])

COC(=O)C1=C(C)NC(C)=C(C(=O)OC)C1c1ccc(Cl)c(Cl)c1 [JFD 03293, dimethyl 4-(3,4-dichlorophenyl)-2,6-dimethyl-1,4-dihydropyridine-3,5-dicarboxylate]
significantly decreased: concentration of Aβ1-40 compared to controls (7W WT APP751 CHO cells [1]) | concentration of Aβ1-42 compared to controls (7W WT APP751 CHO cells [1]) | concentration of total β-amyloid (Aβ1-40+Aβ1-42) compared to controls (7W WT APP751 CHO cells [1])

C=C1C(=O)[C@@]23[C@H](O)C[C@@H]4C(C)(C)CC[C@H](O)[C@@]4(CO)[C@@H]2CC[C@@H]1[C@H]3O [kamebakaurin]
significantly decreased: concentration of Aβ1-40 compared to controls (7W WT APP751 CHO cells [2]; 10 μM) | concentration of Aβ1-42 compared to controls (7W WT APP751 CHO cells [2]; 10 μM) | concentration of total β-amyloid compared to controls (7W WT APP751 CHO cells [2]; 10 μM) | concentration of Aβ1-40 compared to controls (7W WT APP751 CHO cells [2]; 30 μM) | concentration of Aβ1-42 compared to controls (7W WT APP751 CHO cells [2]; 30 μM) | concentration of total β-amyloid compared to controls (7W WT APP751 CHO cells [2]; 30 μM)

CC1=C(O)C(=O)C=C2C1=CC=C1[C@@]2(C)CC[C@@]2(C)[C@@H]3C[C@](C)(C(=O)O)CC[C@]3(C)CC[C@]12C [celastrol]
significantly decreased: concentration of Aβ1-40 compared to controls (7W WT APP751 CHO cells [2]; 500 nM) | concentration of Aβ1-42 compared to controls (7W WT APP751 CHO cells [2]; 500 nM) | concentration of total β-amyloid compared to controls (7W WT APP751 CHO cells [2]; 500 nM) | concentration of Aβ1-40 compared to controls (7W WT APP751 CHO cells [2]; 5 μM) | concentration of Aβ1-42 compared to controls (7W WT APP751 CHO cells [2]; 5 μM) | concentration of total β-amyloid compared to controls (7W WT APP751 CHO cells [2]; 5 μM)

C=C1C(=O)O[C@@H]2C[C@@]3(C)CCCC(=C)[C@@H]3C[C@H]12 [isohelenin]
significantly decreased: concentration of Aβ1-40 compared to controls (7W WT APP751 CHO cells [2]; 5 μM) | concentration of Aβ1-42 compared to controls (7W WT APP751 CHO cells [2]; 5 μM) | concentration of total β-amyloid compared to controls (7W WT APP751 CHO cells [2]; 5 μM) | concentration of Aβ1-40 compared to controls (7W WT APP751 CHO cells [2]; 10 μM) | concentration of Aβ1-42 compared to controls (7W WT APP751 CHO cells [2]; 10 μM) | concentration of total β-amyloid compared to controls (7W WT APP751 CHO cells [2]; 10 μM)

Nc1ccc2ncnc(NCCc3ccc(Oc4ccccc4)cc3)c2c1 [6-amino-4-(4-phenoxyphenylethylamino)quinazoline]
significantly decreased: concentration of Aβ1-40 compared to controls (7W WT APP751 CHO cells [2]; 500 nM) | concentration of Aβ1-42 compared to controls (7W WT APP751 CHO cells [2]; 500 nM) | concentration of total β-amyloid compared to controls (7W WT APP751 CHO cells [2]; 500 nM) | concentration of Aβ1-40 compared to controls (7W WT APP751 CHO cells [2]; 5 μM) | concentration of Aβ1-42 compared to controls (7W WT APP751 CHO cells [2]; 5 μM) | concentration of total β-amyloid compared to controls (7W WT APP751 CHO cells [2]; 5 μM)
